From US9808003B2, “Herbicidally active 2-(substituted-phenyl)-cyclopentane-1,3-dione compounds and derivatives thereof” (Syngenta Limited, priority 2013, dated 2017)
Where two headings read alike, the source gives them in different places.

Columns and labels:
Type in all cases: in vivo
Winter Wheat “Hereward” = assay: Test 1B glasshouse assay, post-emergence herbicidal activity against cereal crops; details: 14 DAA
Outline: (§1)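 Visual percentage damage (100% = total, 0% = none) read 14 days after application, averaged over two replicates. Plants grown 14 days at 22/16 °C day/night before post-emergence spraying of unformulated compound (IF50/acetone, 0.5% v/v Adigor). Rates usually 60–120 g/ha; cloquintocet-mexyl 50 g/ha co-applied where stated.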

Spring Wheat “Teal” = assay: as above; details: 14 DAA
Outline: as §1

Winter Barley “Suzuka” = assay: as above; details: 14 DAA
Outline: as §1

[1] = tested on: Spring Barley “Harrington”; assay: as above; details: 14 DAA
Outline: as §1

[2] = tested on: Echinochloa crus-galli (ECHCG); assay: Test 1A glasshouse assay, pre-emergence herbicidal activity; details: 312 h, read-out: Pre-emergence herbicidal activity (% phytotoxicity) ECHCG
Method: (§2) Seeds of a variety of test species were sown in standard soil in pots. After cultivation for one day (pre-emergence) or after 8 days cultivation (post-emergence) under controlled conditions in a glasshouse (at 24/16° C., day/night; 14 hours light; 65% humidity), the plants were sprayed with an aqueous spray solution derived from the formulation of the technical active ingredient in acetone/water (50:50) solution containing 0.5% Tween 20 (polyoxyethelyene sorbitan monolaurate, CAS RN 9005-64-5). The test plants were then grown under controlled conditions in a glasshouse (at 24/16° C., day/night; 14 hours light; 65% humidity) and watered twice daily. 13 days after application of the test herbicide, for pre- and post-emergence, the test was evaluated visually for percentage phytotoxicity to the plant (where 100%=total damage to plant; 0%=no damage to plant).
(§3) Test plants: Lolium perenne (LOLPE), Alopecurus myosuroides (ALOMY), Echinochloa crus-galli (ECHCG), and Avena fatua (AVEFA); these are all grassy monocotyledonous weeds.

[3] = tested on: Alopecurus myosuroides (ALOMY); assay: as above; details: 312 h, read-out: Pre-emergence herbicidal activity (% phytotoxicity) ALOMY
Method: as §2, §3

Lolium perenne (LOLPE) [4] = assay: as above; details: 312 h, read-out: Pre-emergence herbicidal activity (% phytotoxicity) LOLPE
Method: as §2, §3

Avena fatua (AVEFA) [5] = assay: as above; details: 312 h, read-out: Pre-emergence herbicidal activity (% phytotoxicity) AVEFA
Method: as §2, §3

[6] = tested on: Alopecurus myosuroides (ALOMY); assay: Test 1B glasshouse assay, post-emergence herbicidal activity against grassy weeds; details: 14 DAA
Outline: (§4)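 Herbicide applied post-emergence at rates such as 60 g/ha (±50 g/ha cloquintocet-mexyl) or 90 and 120 g/ha (with safener), rates varying per compound. Plants kept at 22/16 °C, watered twice daily; percentage phytotoxicity scored visually after 14 days.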

Setaria viridis (SETVI) = assay: as above; details: 14 DAA
Outline: as §4

Poa annua (POAAN) = assay: as above; details: 14 DAA
Outline: as §4

Avena fatua (AVEFA) [7] = assay: as above; details: 14 DAA
Outline: as §4

[8] = tested on: Lolium multiflorum (LOLMU); assay: as above; details: 14 DAA
Outline: as §4

[9] = tested on: Echinochloa crus-galli (ECHCG); assay: Test 1A glasshouse assay, post-emergence herbicidal activity; details: Echinochloa crus-galli, 312 h, read-out: Post-emergence Herbicidal Activity (% Phytotoxicity) ECHCG
Outline: (§5)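 Read-out is visual percent phytotoxicity 13 days post-spray, 100% meaning total plant damage and 0% none. Seedlings were treated after 8 days' glasshouse cultivation with an aqueous spray of active ingredient in acetone/water 50:50 plus 0.5% Tween 20.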

[10] = tested on: Alopecurus myosuroides (ALOMY); assay: as above; details: Alopecurus myosuroides, 312 h, read-out: Post-emergence Herbicidal Activity (% Phytotoxicity) ALOMY
Outline: as §5

Lolium perenne (LOLPE) [11] = assay: as above; details: Lolium perenne, 312 h, read-out: Post-emergence Herbicidal Activity (% Phytotoxicity) LOLPE
Outline: as §5

Avena fatua (AVEFA) [12] = assay: as above; details: Avena fatua, 312 h, read-out: Post-emergence Herbicidal Activity (% Phytotoxicity) AVEFA
Outline: as §5

[13] = 60 g/ha herbicide, 0 g/ha cloquintocet-mexyl
[14] = 60 g/ha herbicide, 50 g/ha cloquintocet-mexyl
[15] = 30 g/ha herbicide, 50 g/ha cloquintocet-mexyl
[16] = 250 g/ha, 13 days after application
[17] = application rate 250 g/ha, 13 days after application, visual (100%=total damage; 0%=no damage)

Row | Structure (SMILES) | Post-emergence herbicidal activity against cereal crops, percentage phytotoxicity, Winter Wheat “Hereward” (Winter Wheat “Hereward”; [13]) | Post-emergence herbicidal activity against cereal crops, percentage phytotoxicity, Winter Wheat “Hereward” (Winter Wheat “Hereward”; [14]) | Post-emergence herbicidal activity against cereal crops, percentage phytotoxicity, Spring Wheat “Teal” (Spring Wheat “Teal”; [13]) | Post-emergence herbicidal activity against cereal crops, percentage phytotoxicity, Spring Wheat “Teal” (Spring Wheat “Teal”; [14]) | Post-emergence herbicidal activity against cereal crops, percentage phytotoxicity, Winter Barley “Suzuka” (Winter Barley “Suzuka”; [13]) | Post-emergence herbicidal activity against cereal crops, percentage phytotoxicity, Winter Barley “Suzuka” (Winter Barley “Suzuka”; [14]) | Post-emergence herbicidal activity against cereal crops, percentage phytotoxicity, Spring Barley “Harrington” [1, 13] | Post-emergence herbicidal activity against cereal crops, percentage phytotoxicity, Spring Barley “Harrington” [1, 14] | Post-emergence herbicidal activity, percentage phytotoxicity, ALOMY [6, 13] | Post-emergence herbicidal activity, percentage phytotoxicity, ALOMY [6, 14] | Post-emergence herbicidal activity, percentage phytotoxicity, SETVI (Setaria viridis (SETVI); [13]) | Post-emergence herbicidal activity, percentage phytotoxicity, SETVI (Setaria viridis (SETVI); [14]) | Post-emergence herbicidal activity, percentage phytotoxicity, POAAN (Poa annua (POAAN); [13]) | Post-emergence herbicidal activity, percentage phytotoxicity, POAAN (Poa annua (POAAN); [14]) | Post-emergence herbicidal activity, percentage phytotoxicity, AVEFA (Avena fatua (AVEFA) [7]; [13]) | Post-emergence herbicidal activity, percentage phytotoxicity, AVEFA (Avena fatua (AVEFA) [7]; [14]) | Post-emergence herbicidal activity, percentage phytotoxicity, LOLMU [8, 13] | Post-emergence herbicidal activity, percentage phytotoxicity, LOLMU [8, 14] | further results
1 | Cc1cc(-n2cc(Cl)cn2)cc(C)c1C1C(=O)CC(CCNC(=O)c2ccccn2)C1=O (racemic) [Compound A34, N-[2-[3-[4-(4-chloropyrazol-1-yl)-2,6-dimethyl-phenyl]-2,4-dioxo-cyclopentyl]ethyl]pyridine-2-carboxamide] | 20% | 5% | 43% | 10% | 83% | 38% | 83% | 33% | 65% | 73% | 80% | 85% | 78% | 75% | 100% | 100% | 83% | 90% | inhibition at 250 g/ha [2]: 100%; inhibition at 250 g/ha [3]: 90%; inhibition at 250 g/ha (Lolium perenne (LOLPE) [4]): 100%; inhibition at 250 g/ha (Avena fatua (AVEFA) [5]): 100%; pest or weed control at 250 g/ha [9]: 100%; pest or weed control at 250 g/ha [10]: 90%; pest or weed control at 250 g/ha (Lolium perenne (LOLPE) [11]): 100%; pest or weed control at 250 g/ha (Avena fatua (AVEFA) [12]): 100%
2 | CCc1cc(-n2cc(Cl)cn2)cc(C)c1C1C(=O)CC(CCNC(=O)c2ccccn2)C1=O (stereo not shown) [Compound A87, N-[2-[3-[4-(4-chloropyrazol-1-yl)-2-ethyl-6-methyl-phenyl]-2,4-dioxo-cyclopentyl]ethyl]pyridine-2-carboxamide] | 43% | 33% | 48% | 38% | 83% | 60% | 73% | 60% | 97% | 95% | 93% | 95% | 83% | 83% | 100% | 100% | 100% | 100% | Post-emergence herbicidal activity against cereal crops, percentage phytotoxicity, Winter Wheat “Hereward” (Winter Wheat “Hereward”; [15]): 23%; Post-emergence herbicidal activity against cereal crops, percentage phytotoxicity, Spring Wheat “Teal” (Spring Wheat “Teal”; [15]): 18%; Post-emergence herbicidal activity against cereal crops, percentage phytotoxicity, Winter Barley “Suzuka” (Winter Barley “Suzuka”; [15]): 3%; Post-emergence herbicidal activity against cereal crops, percentage phytotoxicity, Spring Barley “Harrington” [1, 15]: 0%; inhibition at 250 g/ha [2, 16]: 100%; inhibition at 250 g/ha [3, 16]: 100%; inhibition at 250 g/ha (Lolium perenne (LOLPE) [4]; [16]): 100%; inhibition at 250 g/ha (Avena fatua (AVEFA) [5]; [16]): 90%; Post-emergence herbicidal activity, percentage phytotoxicity, ALOMY [6, 15]: 70%; Post-emergence herbicidal activity, percentage phytotoxicity, SETVI (Setaria viridis (SETVI); [15]): 73%; Post-emergence herbicidal activity, percentage phytotoxicity, POAAN (Poa annua (POAAN); [15]): 75%; Post-emergence herbicidal activity, percentage phytotoxicity, AVEFA (Avena fatua (AVEFA) [7]; [15]): 100%; Post-emergence herbicidal activity, percentage phytotoxicity, LOLMU [8, 15]: 100%; pest or weed control at 250 g/ha [9, 17]: 100%; pest or weed control at 250 g/ha [10, 17]: 100%; pest or weed control at 250 g/ha (Lolium perenne (LOLPE) [11]; [17]): 100%; pest or weed control at 250 g/ha (Avena fatua (AVEFA) [12]; [17]): 100%
